Paper PMC11005379, “Control of three-carbon amino acid homeostasis by promiscuous importers and exporters in Bacillus subtilis: role of the “sleeping beauty” amino acid exporters” (mBio, 2024)

Key:
Type in all cases: cell-based
AexA (YdeD) = biological target: T1, AexA (YdeD) (Bacillus subtilis, UniProt P96661); experiment: intracellular accumulation of radiolabelled substrate, overexpressing against deletion strain; settings: labelled compound; 30 mM beta-alanine; C-Glc minimal medium; export; intact cells
T1 construct: native full-length EamA family exporter in intact B. subtilis cells; chromosomal gene overexpressed by aerA Y179D (GP4117) against aerA Y179D deltaaexA (GP3958)
T1 sequence (P96661 1-319): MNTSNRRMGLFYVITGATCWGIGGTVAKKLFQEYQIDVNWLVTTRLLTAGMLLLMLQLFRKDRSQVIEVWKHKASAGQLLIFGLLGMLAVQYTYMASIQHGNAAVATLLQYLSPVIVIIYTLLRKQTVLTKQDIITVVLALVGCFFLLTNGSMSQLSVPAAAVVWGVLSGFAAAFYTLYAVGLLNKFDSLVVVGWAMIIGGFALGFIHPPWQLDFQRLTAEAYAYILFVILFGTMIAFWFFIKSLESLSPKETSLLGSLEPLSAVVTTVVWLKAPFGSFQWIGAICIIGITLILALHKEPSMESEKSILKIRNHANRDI

AimA = biological target: T2, AimA (Bacillus subtilis, UniProt Q45577); experiment: radiolabelled substrate uptake, wild type against deletion strain; settings: labelled compound, 30 mM beta-alanine, C-Glc minimal medium, intact cells
T2 construct: native full-length APC superfamily permease in intact B. subtilis cells; wild type 168 against deltaaimA (GP3590)
T2 sequence (Q45577 1-539): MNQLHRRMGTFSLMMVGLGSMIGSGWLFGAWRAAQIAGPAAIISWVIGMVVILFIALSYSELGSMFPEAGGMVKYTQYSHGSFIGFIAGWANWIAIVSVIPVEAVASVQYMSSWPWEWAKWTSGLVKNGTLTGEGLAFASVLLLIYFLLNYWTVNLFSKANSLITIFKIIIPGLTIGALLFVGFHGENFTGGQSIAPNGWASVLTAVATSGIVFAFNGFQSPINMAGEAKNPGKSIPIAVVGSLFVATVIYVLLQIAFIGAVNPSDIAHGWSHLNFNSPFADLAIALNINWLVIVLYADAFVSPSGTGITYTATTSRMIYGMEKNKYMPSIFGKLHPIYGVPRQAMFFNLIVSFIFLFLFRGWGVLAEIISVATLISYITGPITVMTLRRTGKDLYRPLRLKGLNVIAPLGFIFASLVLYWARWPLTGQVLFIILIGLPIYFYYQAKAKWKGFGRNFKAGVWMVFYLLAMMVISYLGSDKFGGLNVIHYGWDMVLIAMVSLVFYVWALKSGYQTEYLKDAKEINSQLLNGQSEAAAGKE

AlaP = biological target: T3, AlaP (Bacillus subtilis, UniProt O34618); experiment: as above; settings: labelled compound, 30 mM beta-alanine, C-Glc minimal medium, intact cells
T3 construct: gene ytnA; native full-length APC superfamily permease in intact B. subtilis cells
T3 sequence (O34618 1-463): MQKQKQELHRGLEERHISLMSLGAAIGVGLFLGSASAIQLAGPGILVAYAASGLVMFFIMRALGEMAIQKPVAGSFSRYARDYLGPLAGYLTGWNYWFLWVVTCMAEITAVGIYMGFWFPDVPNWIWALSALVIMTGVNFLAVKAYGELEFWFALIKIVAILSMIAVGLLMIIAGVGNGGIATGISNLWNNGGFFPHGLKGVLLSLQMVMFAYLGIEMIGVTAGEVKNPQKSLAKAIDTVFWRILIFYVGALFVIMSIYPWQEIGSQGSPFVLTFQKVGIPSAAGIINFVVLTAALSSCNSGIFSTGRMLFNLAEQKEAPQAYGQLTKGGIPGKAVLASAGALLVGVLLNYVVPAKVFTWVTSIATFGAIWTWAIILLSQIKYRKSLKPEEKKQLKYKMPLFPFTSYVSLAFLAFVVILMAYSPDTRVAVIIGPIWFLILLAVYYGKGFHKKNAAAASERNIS

## NCCC(=O)O [β-alanine]
AexA (YdeD)
  intracellular accumulation of radiolabelled substrate, overexpressing against de: clearly demonstrates that AexA indeed acts as an exporter for β-alanine
AimA
  radiolabelled substrate uptake, wild type against deletion strain: a severe reduction was observed in the alaP and aimA mutants
AlaP
  radiolabelled substrate uptake, wild type against deletion strain: a severe reduction was observed in the alaP and aimA mutants
